Our source for the IC50 values is US20040209914A1, “Aromatic sulfone hydroxamic acids and their use as protease inhibitors” (priority 2000, published 2004).

One assay has as its target T1, Recombinant human MMP-2 (Homo sapiens, UniProt P08253).
T1 construct: made in house
T1 sequence (P08253 110-660): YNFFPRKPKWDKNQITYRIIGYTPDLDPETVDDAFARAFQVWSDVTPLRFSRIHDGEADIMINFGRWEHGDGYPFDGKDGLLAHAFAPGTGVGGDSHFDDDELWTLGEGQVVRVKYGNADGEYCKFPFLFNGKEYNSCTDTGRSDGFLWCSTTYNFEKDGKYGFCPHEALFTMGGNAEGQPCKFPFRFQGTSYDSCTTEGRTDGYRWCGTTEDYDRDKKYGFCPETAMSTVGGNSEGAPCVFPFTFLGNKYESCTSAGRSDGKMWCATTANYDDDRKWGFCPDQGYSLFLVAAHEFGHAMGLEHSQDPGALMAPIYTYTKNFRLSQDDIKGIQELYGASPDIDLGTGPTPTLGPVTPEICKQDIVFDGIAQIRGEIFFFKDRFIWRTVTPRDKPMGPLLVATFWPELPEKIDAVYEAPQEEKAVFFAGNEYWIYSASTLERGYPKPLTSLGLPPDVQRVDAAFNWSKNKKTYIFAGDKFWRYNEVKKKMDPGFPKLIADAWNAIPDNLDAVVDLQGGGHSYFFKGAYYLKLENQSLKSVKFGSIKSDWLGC
Description: biochemical. The conditions noted are these: fluorogenic MCA-peptide substrate, pH 7.5, room temperature; read-out: MMP-2 IC50. The protocol:
(§1) Recombinant human MMP-1, MMP-2, MMP-9, MMP-13, and were used in this assay. These enzymes were prepared in the Assignee's es following usual laboratory procedures. Specifics for preparing and e enzymes can be found in the scientific literature describing these See, e.g., Enzyme Nomenclature (Academic Press, San Diego, Calif., d the citations therein).
The MMP-2 was obtained from MMP-2 expressing transfected cells provided by Dr. Gregory Goldberg of Washington University.
(§2) The enzyme substrate was a methoxycoumarin-containing polypeptide having the following sequence:
(§3) MCA-ProLeuGlyLeuDpaAlaArgNH2
(§4) Here, “MCA” is methoxycoumarin and “Dpa” is 3-(2,4-dinitrophenyl)-L-2,3-diaminopropionyl alanine.
(§5) These solutions were then compared to a control (which contained equal amount of DMSO/buffer solution, but no hydroxamate compound) using Microfluor™ White Plates (Dynatech, Chantilly, Va.). Specifically, The MMPs were activated with APMA or trypsin. […] The control likewise was incubated at room temperature in separate plates with the MMP and 4 uM of the MMP substrate. […] Inhibition was measured as a reduction in fluorescent intensity as a function of inhibitor concentration using a Perkin Elmer (Norwalk, Conn.) L550 plate reader. The IC50's were then calculated from these measurements.

The target of a further assay is T2, Recombinant human MMP-13 (Homo sapiens, UniProt P45452).
T2 construct: made in house; host or cells: baculovirus / insect cells
The assay is described as follows: biochemical. The conditions noted are these: fluorogenic MCA-peptide substrate, pH 7.5, room temperature; read-out: MMP-13 IC50. As to the method: as §1
The expressed proenzyme was first purified over a heparin agarose column, and then over a chelating zinc chloride column. The proenzyme was then activated by APMA for use in the assay.
as §2, §3, §4, §5

Structures can show the parent of a compound that is named as a salt.

Turning to `CN(C)c1ccc(C(=O)C2CCN(c3ccc(S(=O)(=O)C4(C(=O)NO)CCOCC4)cc3)CC2)cc1` [Example 320], the IC50 at Recombinant human MMP-2 was determined as 10000 nM.
Turning to `COc1ccc(C(=O)C2CCN(c3ccc(S(=O)(=O)C4(C(=O)NO)CCNCC4)cc3)CC2)cc1` [Example 140], the IC50 came out at 18.1 nM on Recombinant human MMP-13 and 800 nM at Recombinant human MMP-2.
The matching figures for `O=C(c1ccc(CN2CCCC2)cc1)C1CCN(c2ccc(S(=O)(=O)C3(C(=O)NO)CCOCC3)cc2)CC1` [Example 385]: 3.2 nM and 34.6 nM.
The matching figures for `COCCN1CCC(C(=O)NO)(S(=O)(=O)c2ccc(N3CCC(c4ccc(F)cc4)CC3)cc2)CC1` [Example 262]: 1 nM and 1.7 nM.
The matching figures for `O=C(c1ccc(CC2CCCCC2)cc1)C1CCN(c2ccc(S(=O)(=O)C3(C(=O)NO)CCN(C4CC4)CC3)cc2)CC1` [Example 198]: 12 nM and 2570 nM.
As to `O=C(NO)C1(S(=O)(=O)c2ccc(N3CCC(c4ccc(F)cc4)CC3)cc2)CCN(C2CC2)CC1` [Example 259], the IC50 on Recombinant human MMP-13 is 0.4 nM; at Recombinant human MMP-2, 0.6 nM.
The corresponding values for `COCCN1CCC(C(=O)NO)(S(=O)(=O)c2ccc(N3CCC(C(=O)c4ccc(OCCC5CCCCC5)cc4)CC3)cc2)CC1` [Example 228] are 19.5 nM and 155 nM.
The corresponding values for `O=C(NO)C1(S(=O)(=O)c2ccc(N3CCC(c4ccc(Cl)cc4)CC3)cc2)CCN(C2CC2)CC1` [Example 261] are 0.8 nM and 1 nM.
With `O=C(NO)C1(S(=O)(=O)c2ccc(N3CCC(SCc4cccc(C(F)(F)F)c4)CC3)cc2)CCN(C2CC2)CC1` [Example 149], the IC50 came to 16.9 nM at Recombinant human MMP-13 and 210 nM on Recombinant human MMP-2.
Consider `COCCN1CCC(C(=O)NO)(S(=O)(=O)c2ccc(N3CCC(C(=O)c4ccc(COCC5CC5)cc4)CC3)cc2)CC1` [Example 239], for which the figures for the IC50 on Recombinant human MMP-13 and at Recombinant human MMP-2 were 0.6 nM and 75.8 nM, respectively.
The corresponding values for `C=CCN1CCC(C(=O)NO)(S(=O)(=O)c2ccc(N3CCC(C(=O)c4ccc(NC)cc4)CC3)cc2)CC1` [Example 161] are 0.3 nM and 235 nM.
Turning to `CN(C)CCN1CCN(C(=O)C2CCN(c3ccc(S(=O)(=O)C4(C(=O)NO)CCOCC4)cc3)CC2)CC1` [Example 19], the IC50 on Recombinant human MMP-2 was determined as 10000 nM.
The same measure, in the same setting: with `Cn1ccc2cc(C(=O)C3CCN(c4ccc(S(=O)(=O)C5(C(=O)NO)CCOCC5)cc4)CC3)ccc21` [Example 340] the figure was 10000 nM.
Regarding `COc1ccc(C(=O)C2CCN(c3ccc(S(=O)(=O)C4(C(=O)NO)CCN(C(=O)c5ccco5)CC4)cc3)CC2)cc1` [Example 139], the IC50 turned out to be 1.8 nM on Recombinant human MMP-13 and 330 nM on Recombinant human MMP-2.
Regarding `COCCN1CCC(C(=O)NO)(S(=O)(=O)c2ccc(N3CCC(C(=O)c4ccc(C)cc4)CC3)c(Cl)c2)CC1` [Example 275], the IC50 on Recombinant human MMP-13 was found to be 184 nM; on Recombinant human MMP-2, 6740 nM.
The corresponding values for `COCCN1CCC(C(=O)NO)(S(=O)(=O)c2ccc(N3CCC(C(=O)c4ccc(COC)s4)CC3)cc2)CC1` [Example 252] are 0.4 nM and 14.3 nM.
The matching figures for `O=C(NO)C1(S(=O)(=O)c2ccc(N3CCC(N4CCc5ccccc54)CC3)cc2)CCOCC1` [Example 383]: 36.9 nM and 382 nM.
The corresponding values for `Cc1ccc(C2CCN(c3ccc(S(=O)(=O)C4(C(=O)NO)CCN(CC5CC5)CC4)cc3)CC2)cc1` [Example 273] are 2.5 nM and 13.4 nM.
Take `O=C(NO)C1(S(=O)(=O)c2ccc(N3CCC(SCc4ccccc4Cl)CC3)cc2)CCN(C2CC2)CC1` [Example 147]: the results for the IC50 at Recombinant human MMP-13 and at Recombinant human MMP-2 were 20 nM and 145 nM, respectively.
With `COCCN1CCC(C(=O)NO)(S(=O)(=O)c2ccc(N3CCC(c4nc5ccccc5o4)CC3)cc2)CC1` [Example 258], the IC50 on Recombinant human MMP-13 was found to be 14.1 nM; on Recombinant human MMP-2, 45.4 nM.
In the case of `COCCN1CCC(C(=O)NO)(S(=O)(=O)c2ccc(N3CCC(C(=O)c4cccc(C)c4)CC3)c(Cl)c2)CC1` [Example 277], the values for the concentration for half-maximal inhibition (IC50) on Recombinant human MMP-13 and on Recombinant human MMP-2 were 274 nM and above 10000 nM, respectively.
Take `C[C@H]1C[C@H](C)CN(C(=O)C2CCN(c3ccc(S(=O)(=O)C4(C(=O)NO)CCNCC4)cc3)CC2)C1` (relative stereo) [Example 72, rel-4-[[4-[4-[[(3R,5R)-3,5-dimethyl-1-piperidinyl]carbonyl]-1-piperidinyl]phenyl]sulfonyl]-N-hydroxy-4-piperidinecarboxamide, monohydrochloride]: on Recombinant human MMP-2, the IC50 was 10000 nM.
In the case of `COCCN1CCC(C(=O)NO)(S(=O)(=O)c2ccc(N3CCC(Sc4nccs4)CC3)cc2)CC1` [Example 256], the figures for the concentration for half-maximal inhibition (IC50) on Recombinant human MMP-13 and at Recombinant human MMP-2 were 7.5 nM and 35.4 nM, respectively.
The corresponding values for `O=C(Cc1cccs1)C1CCN(c2ccc(S(=O)(=O)C3(C(=O)NO)CCOCC3)cc2)CC1` [Example 387] are 4.5 nM and 344 nM.
With `O=C(NO)C1(S(=O)(=O)c2ccc(N3CCC(c4ccc(Cl)cc4)CC3)cc2)CCN(CC2CC2)CC1` [Example 266], the IC50 on Recombinant human MMP-13 came out at 1.7 nM.
On to `O=C(Cc1ccccc1)C1CCN(c2ccc(S(=O)(=O)C3(C(=O)NO)CCOCC3)cc2)CC1` [Example 386], for which the figures for the IC50 on Recombinant human MMP-13 and at Recombinant human MMP-2 were 15.2 nM and 1900 nM, respectively.
The corresponding values for `C[C@@H]1CN(C(=O)C2CCN(c3ccc(S(=O)(=O)C4(C(=O)NO)CCOCC4)cc3)CC2)C[C@H](C)O1` [Example 30] are 18.1 nM and above 10000 nM.
Take `COCCN1CCC(C(=O)NO)(S(=O)(=O)c2ccc(N3CCC(C(=O)c4ccc(CCC(C)O)cc4)CC3)cc2)CC1` (centres unmarked) [Example 245]: the IC50 on Recombinant human MMP-13 is 1.1 nM; at Recombinant human MMP-2 it was 38.6 nM.
The matching figures for `C#CCN1CCC(C(=O)NO)(S(=O)(=O)c2ccc(N3CCC(C(=O)c4ccc(NC)cc4)CC3)cc2)CC1` [Example 173]: 0.9 nM and 117 nM.
The matching figures for `O=C(NO)C1(S(=O)(=O)c2ccc(N3CCC(SCc4ccc(OC(F)(F)F)cc4)CC3)cc2)CCN(C2CC2)CC1` [Example 143]: 2.1 nM and 100 nM.
As for `CC1CC(C)CN(C(=O)C2CCN(c3ccc(S(=O)(=O)C4(C(=O)NO)CCN(C(=O)CNCC(F)(F)F)CC4)cc3)CC2)C1` (centres unmarked) [Example 113], the IC50 on Recombinant human MMP-2 is 10000 nM.
For the molecule `COCCN1CCC(C(=O)NO)(S(=O)(=O)c2ccc(N3CCC(C(=O)c4ccc(CO)cc4)CC3)cc2)CC1` [Example 238], the IC50 was 1.8 nM at Recombinant human MMP-13 and 62.1 nM at Recombinant human MMP-2.
The corresponding values for `CN(C)Cc1ccc(C(=O)C2CCN(c3ccc(S(=O)(=O)C4(C(=O)NO)CCOCC4)cc3)CC2)cc1` [Example 384] are 2.9 nM and 52.9 nM.
The matching figures for `CCCc1ccc(C(=O)C2CCN(c3ccc(S(=O)(=O)C4(C(=O)NO)CCN(S(C)(=O)=O)CC4)cc3)CC2)cc1` [Example 165]: 85.9 nM and 1750 nM.
The corresponding values for `CCCCOc1ccc(C(=O)C2CCN(c3ccc(S(=O)(=O)C4(C(=O)NO)CCOCC4)cc3)CC2)cc1` [Example 329] are 20 nM and 1800 nM.
Consider `COCCN1CCC(C(=O)NO)(S(=O)(=O)c2ccc(N3CCC(C(=O)c4cccc(OC)c4)CC3)c(Cl)c2)CC1` [Example 276], for which the IC50 on Recombinant human MMP-13 stood at 127 nM; on Recombinant human MMP-2 it was 2730 nM.
The matching figures for `C=CCN1CCC(C(=O)NO)(S(=O)(=O)c2ccc(N3CCC(C(=O)c4ccc(CCC)cc4)CC3)cc2)CC1` [Example 159]: 0.5 nM and 32.2 nM.
In the case of `CC1CC(C)CN(C(=O)C2CCN(c3ccc(S(=O)(=O)C4(C(=O)NO)CCN(C(=O)CN5CCN(CCN(C)C)CC5)CC4)cc3)CC2)C1` (centres unmarked) [Example 111], the 50% inhibitory concentration (IC50) at Recombinant human MMP-2 came to 10000 nM.
Consider `COCCN1CCC(C(=O)NO)(S(=O)(=O)c2ccc(N3CCC(C(=O)c4ccc(CCCC(C)O)cc4)CC3)cc2)CC1` (centres unmarked) [Example 244], for which the IC50 on Recombinant human MMP-13 turned out to be 0.2 nM.
As for `C[C@@H]1C[C@H](C)CN(C(=O)C2CCN(c3ccc(S(=O)(=O)C4(C(=O)NO)CCNCC4)cc3)CC2)C1` [Example 74, rel-4-[[4-[4-[[(3R,5S)-3,5-dimethyl-1-piperidinyl]carbonyl]-1-piperidinyl]phenyl]sulfonyl]-N-hydroxy-4-piperidinecarboxamide, monohydrochloride], at Recombinant human MMP-2, the IC50 was 10000 nM.
